Columns and labels:
[1] = biological target: Full length human DNAPK protein (Homo sapiens, UniProt P78527); assay: DNA-PK enzymatic assay (TR-FRET); format: biochemical; settings: 10 μM ATP, 1.6 μM peptide substrate
Rat hepatocyte = assay: Metabolic stability assay (rat hepatocyte Clint); format: in vitro ADME; settings: 1 μM compound, cryopreserved hepatocytes 1 million cells per mL
Procedure: Viability of cryopreserved hepatocytes was determined using trypan blue and the cell conc. was adjusted to […] with buffer. 1 μM compound (in Acetonitrile; 0.01% DMSO) was incubated with 250 μL of hepatocytecells (1 million cells per mL) in a 96 deep well plate. Reaction was stopped at different time points (0, 0.5, 5, 15, 30, 45, 60, 80, 100 and 120 min) by addition of 3 volumes of chilled acetonitrile to 20 μL of reaction mixture and centrifuged at 4° C. for 15 min. 40 μL of supernatant was diluted to 200 μL with pure water and analyzed using LC-MS/MS.
In vitro hepatocyte clearance was estimated based on determination of elimination half-life (T1/2) of compounds disappearance from their initial concentrations. Peak area ratios of each compound (test or control) to IS was calculated. Drug elimination rate constant k (min−1), T1/2 (min), and in vitro intrinsic clearance CLint (μL/min/E6) was calculated according to the following equations: […]
Where Chep (cells×μL^−1) is the cell concentration in the incubation system.

[2] = Metabolic stability assay (human microsomal Clint); format: in vitro ADME; settings: human, pooled human liver microsomes, pH 7.4, 1 μM compound, 1 mg/mL microsomes, 1 mM NADPH, 37° C.
Procedure: 1 μM compound was incubated with 1 mg/mL of microsomes (Pooled HLM with 20 mg/ml protein cone) at 37° C. in 250 μL of buffer (100 mM phosphate buffer, pH-7.4) containing 1 mM NADPH solution. 20 μL of incubation mix was quenched with 5 volumes chilled acetonitrile at different time points 0, 0.5, 5, 10, 15, 20 and 30 min in a fresh 96 well plate. The quench plate was centrifuged at 4000 rpm for 15 min. 40 μL of supernatant was diluted to 200 μL with pure water and analyzed using LC-MS/MS.
In vitro intrinsic clearance of the drugs in the microsome CLint (μl/min/mg) was calculated in the similar manner as the CLint in the hepatocyte.

MDR1, BCRP = assay: MDCKII-MDR1-BCRP efflux assay; format: in vitro ADME; settings: dog, pH 7.4, 5 μM compound, HBSS pH 7.4, read-out: MDCK-Mdr1-BCRP efflux ratio
Procedure: The apical-to-basolateral (A-B) and basolateral-to-apical (B-A) transport of compound in HBSS (25 mM HEPES, pH 7.4) was measured across MDCKII-MDR1-BCRP cell monolayers. Incubations were performed at approximately 37° C. for 120 min, with functionality of the test system being confirmed using 5 μM digoxin as a positive control substrate. Transport of 5 μM compound and control compound were determined by quantifying substrate concentration in the incubation medium of donor compartment at the beginning of the incubation period, and both donor and receiver compartments at the end of the incubation period. The data was used to calculate the apparent permeability (Papp). All incubations were performed in triplicate and integrity of the cell monolayers was confirmed using the marker Lucifer yellow.
The permeability coefficient Pexact (cm/s) was calculated using the equation: […]
The Pexact ratio was calculated using the equation: […]
The efflux ratio was calculated using the equation: […]
Where dCr/dt is the cumulative concentration of compound in the receiver chamber as a function of time (μM/s); Vr is the solution volume in the receiver chamber (0.1 mL on the apical side, 0.3 mL on the basolateral side); A is the surface area for the transport, i.e. 0.11 cm2 for the area of the monolayer; CO is the initial concentration in the donor chamber (μM).

SMILES | IC50 [1] | Rat hepatocyte CLint (μl/min/10^−6 cells) (Rat hepatocyte) | microsomal CLint at 1 μM [2] | efflux ratio at 120 min, 5 μM (MDR1, BCRP)
Cc1cc2ncnn2cc1Nc1ncc2c(n1)c([C@H]1CC[C@H](OC(F)F)CC1)nn2C [Example 12, 3-((1r,4r)-4-(difluoromethoxy)cyclohexyl)-1-methyl-N-(7-methyl-[1,2,4]triazolo[1,5-a]pyridin-6-yl)-1H-pyrazolo[4,3-d]pyrimidin-5-amine] | 1.1 nM | 70.3 μl/min/10^−6 cells | 109 µL/min/mg | 2.1
Cc1cc2ncnn2cc1Nc1ncc2c(C)nn(C3CCOCC3)c2n1 [Example 13, 3-methyl-N-(7-methyl-[1,2,4]triazolo[1,5-a]pyridin-6-yl)-1-(tetrahydro-2H-pyran-4-yl)-1H-pyrazolo[3,4-d]pyrimidin-6-amine] | 3.9 nM | <1 μl/min/10^−6 cells | 12.9 µL/min/mg | 2.8
Cc1cc2nccn2cc1Nc1ncc2c(C)nn(C3CCOCC3)c2n1 [Example 14, 3-methyl-N-(7-methylimidazo[1,2-a]pyridin-6-yl)-1-(tetrahydro-2H-pyran-4-yl)-1H-pyrazolo[3,4-d]pyrimidin-6-amine] | 1.6 nM | 1.7 μl/min/10^−6 cells | 9.9 µL/min/mg | 2.3
Cc1cc2ncnn2cc1Nc1ncc2c(C)cn(C3CCOCC3)c2n1 [Example 15, 7-methyl-N-(5-methyl-7-(tetrahydro-2H-pyran-4-yl)-7H-pyrrolo[2,3-d]pyrimidin-2-yl)-[1,2,4]triazolo[1,5-a]pyridin-6-amine] | 35.2 nM | 14.6 μl/min/10^−6 cells | 69.6 µL/min/mg | 0.8
Cc1nn(C2CCOCC2)c2nc(Nc3cn4ncnc4cc3Cl)ncc12 [Example 16, N-(7-chloro-[1,2,4]triazolo[1,5-a]pyridin-6-yl)-3-methyl-1-(tetrahydro-2H-pyran-4-yl)-1H-pyrazolo[3,4-d]pyrimidin-6-amine] | 8.4 nM | 11.8 μl/min/10^−6 cells | 26.4 µL/min/mg | 0.8
Cc1cc2ncnn2cc1Nc1ncc2c(C(F)(F)F)nn(C3CCOCC3)c2n1 [Example 17, N-(7-methyl-[1,2,4]triazolo[1,5-a]pyridin-6-yl)-1-(tetrahydro-2H-pyran-4-yl)-3-(trifluoromethyl)-1H-pyrazolo[3,4-d]pyrimidin-6-amine] | 5.2 nM | 7.2 μl/min/10^−6 cells | 54.7 µL/min/mg | 1.5
COc1ccc(Cn2nc(C)c3cnc(Nc4cn5ncnc5cc4C)nc32)cc1 [Example 18, 1-(4-methoxybenzyl)-3-methyl-N-(7-methyl-[1,2,4]triazolo[1,5-a]pyridin-6-yl)-1H-pyrazolo[3,4-d]pyrimidin-6-amine] | 2.6 nM | 31.7 μl/min/10^−6 cells | 153 µL/min/mg | 1.1
Cc1cc2ncnn2cc1Nc1ncc2c(C)nn(C3CCN(C)CC3)c2n1 [Example 19, 3-methyl-N-(7-methyl-[1,2,4]triazolo[1,5-a]pyridin-6-yl)-1-(1-methylpiperidin-4-yl)-1H-pyrazolo[3,4-d]pyrimidin-6-amine] | 25.9 nM | 6.8 μl/min/10^−6 cells | 4.3 µL/min/mg | 13.1
Cc1cc2ncnn2cc1Nc1ncc2c(C)nn(C3CCCCC3)c2n1 [Example 20, 1-cyclohexyl-3-methyl-N-(7-methyl-[1,2,4]triazolo[1,5-a]pyridin-6-yl)-1H-pyrazolo[3,4-d]pyrimidin-6-amine] | 1.3 nM | 52.0 μl/min/10^−6 cells | 117 µL/min/mg | 0.8

More lines, now with the values ahead:

IC50 [1] | Rat hepatocyte CLint (μl/min/10^−6 cells) (Rat hepatocyte) | microsomal CLint at 1 μM [2] | efflux ratio at 120 min, 5 μM (MDR1, BCRP) | SMILES
0.7 nM | 21.2 μl/min/10^−6 cells | 115 µL/min/mg | 0.9 | Cc1cc2ncnn2cc1Nc1ncc2c(C)nn(C3CCC(OC(F)F)CC3)c2n1 (stereo not drawn) [Example 23, 1-(4-(difluoromethoxy)cyclohexyl)-3-methyl-N-(7-methyl-[1,2,4]triazolo[1,5-a]pyridin-6-yl)-1H-pyrazolo[3,4-d]pyrimidin-6-amine]
1.8 nM | 17.7 μl/min/10^−6 cells | 209 µL/min/mg | 1.3 | CO[C@H]1CC[C@@H](n2nc(C)c3cnc(Nc4cn5ncnc5cc4C)nc32)CC1 [Example 25, 1-((1s,4s)-4-methoxycyclohexyl)-3-methyl-N-(7-methyl-[1,2,4]triazolo[1,5-a]pyridin-6-yl)-1H-pyrazolo[3,4-d]pyrimidin-6-amine]
3 nM | 13.6 μl/min/10^−6 cells | 134 µL/min/mg | 4.2 | CO[C@H]1CC[C@H](n2nc(C)c3cnc(Nc4cn5ccnc5cc4C)nc32)CC1 [Example 26, 1-((1r,4r)-4-methoxycyclohexyl)-3-methyl-N-(7-methylimidazo[1,2-a]pyridin-6-yl)-1H-pyrazolo[3,4-d]pyrimidin-6-amine]
1.8 nM | 12.4 μl/min/10^−6 cells | 6.6 µL/min/mg | 31.2 | Cc1cc2ncnn2cc1Nc1ncc2c(C)nn([C@H]3CC[C@H](O)CC3)c2n1 [Example 31, (1r,4r)-4-(3-methyl-6-((7-methyl-[1,2,4]triazolo[1,5-a]pyridin-6-yl)amino)-1H-pyrazolo[3,4-d]pyrimidin-1-yl)cyclohexan-1-ol]
1.9 nM | 11.5 μl/min/10^−6 cells | 9.1 µL/min/mg | 9.4 | Cc1cc2ncnn2cc1Nc1ncc2c(C)nn([C@H]3CC[C@@H](O)CC3)c2n1 [Example 32, (1s,4s)-4-(3-methyl-6-((7-methyl-[1,2,4]triazolo[1,5-a]pyridin-6-yl)amino)-1H-pyrazolo[3,4-d]pyrimidin-1-yl)cyclohexan-1-ol]
0.9 nM | 71.1 μl/min/10^−6 cells | 200 µL/min/mg | 0.6 | Cc1cc2ncnn2cc1Nc1ncc2c(C)nn(C3CCC4(CC3)CC4)c2n1 [Example 37, 3-methyl-N-(7-methyl-[1,2,4]triazolo[1,5-a]pyridin-6-yl)-1-(spiro[2.5]octan-6-yl)-1H-pyrazolo[3,4-d]pyrimidin-6-amine]
11.1 nM | 15.3 μl/min/10^−6 cells | 34.2 µL/min/mg | 1.4 | Cc1cc2ncnn2cc1Nc1ncc2c(C)nn(CC3CC3)c2n1 [Example 38, 1-(cyclopropylmethyl)-3-methyl-N-(7-methyl-[1,2,4]triazolo[1,5-a]pyridin-6-yl)-1H-pyrazolo[3,4-d]pyrimidin-6-amine]
2.1 nM | 153.3 μl/min/10^−6 cells | 151 µL/min/mg | 0.9 | Cc1cc2ncnn2cc1Nc1ncc2c(C)nn([C@H]3C[C@H](C)C3)c2n1 [Example 39, 3-methyl-N-(7-methyl-[1,2,4]triazolo[1,5-a]pyridin-6-yl)-1-((1r,3r)-3-methylcyclobutyl)-1H-pyrazolo[3,4-d]pyrimidin-6-amine]
4.2 nM | 144.4 μl/min/10^−6 cells | 125 µL/min/mg | 0.9 | Cc1cc2ncnn2cc1Nc1ncc2c(C)nn([C@H]3C[C@@H](C)C3)c2n1 [Example 40, 3-methyl-N-(7-methyl-[1,2,4]triazolo[1,5-a]pyridin-6-yl)-1-((1s,3s)-3-methylcyclobutyl)-1H-pyrazolo[3,4-d]pyrimidin-6-amine]
